For one data set, the target named is T1, rat PTP1 (Rattus norvegicus, UniProt P20417).
T1 construct: a C-terminal truncation of rat PTP1 (amino acid residues 1-322); GST (N, cleaved yes); made in house; host or cells: E. coli strain TG-1 (pGEX-2T)
T1 sequence (P20417 1-322): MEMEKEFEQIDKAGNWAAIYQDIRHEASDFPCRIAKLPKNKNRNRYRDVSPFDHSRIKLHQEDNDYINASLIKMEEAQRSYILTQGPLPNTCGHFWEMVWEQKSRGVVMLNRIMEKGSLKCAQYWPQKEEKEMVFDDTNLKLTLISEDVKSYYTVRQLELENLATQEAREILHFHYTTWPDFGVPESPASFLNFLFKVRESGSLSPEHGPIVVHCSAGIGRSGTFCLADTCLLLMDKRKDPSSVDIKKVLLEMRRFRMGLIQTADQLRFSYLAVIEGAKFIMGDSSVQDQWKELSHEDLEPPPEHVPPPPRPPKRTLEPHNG
As to the kind of experiment: PTP1 assay, pNPP hydrolysis (rate of change in A405). In kind it is biochemical. To be noted: calculated from IC50-values obtained from a dose-response curve using the inhibition assay. In short, it runs like this:
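Thrombin-cleaved rat PTP1 residues 1-322 (35 ng/ml) with 1 mM pNPP in 50 mM Hepes pH 7.2, NaCl, EDTA, DTT, BSA at room temperature. A405 rate followed 60 min. Compounds added as 10 mM solutions; percent inhibition relative to plate DMSO controls, 1 mM orthovanadate as full-inhibition control.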

pKi: −log10 of the molar value.

With `CCCCCNC(=O)[C@H](Cc1ccc(OCC(=O)O)c(C(=O)O)c1)NC(=O)[C@@H](Cc1ccccc1)N1CCCC1=O` [Example 143, 2-(carboxymethoxy)-5-[(2S)-3-oxo-2-{[(2R)-2-(2-oxo-1-pyrrolidinyl)-3-phenylpropanoyl]amino}-3-(pentylamino)propyl]benzoic Acid], the melting point – broadly, the temperature, or range, at which the solid turns liquid – lay in the range of 96 to 97 °C.

On to `O=C(O)COc1ccc(C[C@H](NC(=O)c2ccccc2)C(=O)NCCCCc2ccccc2)cc1-c1nn[nH]n1` [Example 146, 2-[4-{(2S)-2-(benzoylamino)-3-oxo-3-[(4-phenylbutyl)amino]-propyl}-2-(2H-1,2,3,4-tetrazol-5-yl)phenoxy]acetic Acid], for which the melting point lay in the range of 223 to 225 °C. Moreover, the negative logarithm of the Ki (pKi) (usually the Ki on a negative log10 scale, so that one unit is a factor of ten) at rat PTP1 is 4.70.

For the compound `O=C(O)COc1ccc(C[C@H](NC(=O)c2ccoc2)C(=O)NCCCCc2ccccc2)cc1-c1nn[nH]n1` [Example 147, 2-[4-{(2S)-2-(3-furoylamino)-3-oxo-3-[(4-phenylbutyl)amino]-propyl}-2-(2H-1,2,3,4-tetrazol-5-yl)phenoxy]acetic Acid], the melting point lay in the range of 230 to 233 °C. For the same compound, the negative logarithm of the Ki (pKi) on rat PTP1 was 4.34.

The compound `CCCCCNC(=O)[C@@H](Cc1ccc(OCC(=O)O)c(C(=O)O)c1)NC(=O)Cc1ccccc1OC` [Example 153, 2-(carboxymethoxy)-5-[(2R)-2-{[2-(2-methoxyphenyl)acetyl]amino}-3-oxo-3-(pentylamino)propyl]benzoic Acid] displayed a melting point of 146 to 148 °C. The pKi on rat PTP1 is 4.52.

The record behind these values is patent publication US6410585B1, “Inhibitors of protein tyrosine phosphatase” (priority 1997, dated 2002).
